According to patent publication US12552825B2 (Zikani Therapeutics, Inc., priority 2019, dated 2026):
Converted amounts (≈) assume the structure as drawn.

Experiments:
Type in all cases: cell-based
P. aeruginosa MP-3 = assay: MIC determination by CLSI broth dilution, P. aeruginosa MP-3; details: Pseudomonas aeruginosa, MP3, strain MP-3
A. baumannii MP-15 = assay: MIC determination by CLSI broth dilution, A. baumannii MP-15; details: Acinetobacter baumannii, MP15, strain MP-15, read-out: MIC A. baumanii MP-15
K. pneumoniae MP-546 = assay: MIC determination by CLSI broth dilution, K. pneumoniae MP-546; details: Klebsiella pneumoniae, MP546, CLSI broth dilution; strain MP-546
S. aureus MP-12 = assay: microbe, parasite or virus in culture; details: Staphylococcus aureus, MP12, read-out: MIC S. aureus MP-12
K. pneumoniae MP-648 = assay: MIC determination by CLSI broth dilution, K. pneumoniae MP-648; details: Klebsiella pneumoniae, MP648, CLSI broth dilution; strain MP-648
E. coli MP-4 = assay: MIC determination by CLSI broth dilution, E. coli MP-4; details: Escherichia coli, MP4, CLSI broth dilution; strain MP-4

| Compound | MIC (P. aeruginosa MP-3) [µg/mL] | MIC (A. baumannii MP-15) [µg/mL] | MIC (K. pneumoniae MP-546) [µg/mL] | MIC (S. aureus MP-12) [µg/mL] | MIC (K. pneumoniae MP-648) [µg/mL] | MIC (E. coli MP-4) [µg/mL] |
| --- | --- | --- | --- | --- | --- | --- |
| CO[C@]1(C)C[C@@H](C)CN(C)[C@H](CCCN2CCCCC2)COC(=O)C(C)(C)C(=O)[C@H](C)[C@H]1O[C@@H]1O[C@H](C)C[C@H](N(C)C)[C@H]1O [Compound 93, (3R,6R,8R,9R,10R)-9-(((2S,3R,4S,6R)-4-(dimethylamino)-3-hydroxy-6-methyltetrahydro-2H-pyran-2-yl)oxy)-8-methoxy-4,6,8,10,12,12-hexamethyl-3-(3-(piperidin-1-yl)propyl)-1-oxa-4-azacyclotridecane-11,13-dione] | > 32 | > 32 | < 4 | 4 to 32 (≈ 6.39 to 51.1 µM) | < 4 | < 4 |
| CCCN1C[C@H](C)C[C@@](C)(OC)[C@H](O[C@@H]2O[C@H](C)C[C@H](N(C)C)[C@H]2O)[C@@H](C)C(=O)C(C)(C)C(=O)OC[C@H]1CC1CCN(C)CC1 [Compound 95, (3R,6R,8R,9R,10R)-9-(((2S,3R,4S,6R)-4-(dimethylamino)-3-hydroxy-6-methyltetrahydro-2H-pyran-2-yl)oxy)-8-methoxy-6,8,10,12,12-pentamethyl-3-((1-methylpiperidin-4-yl)methyl)-4-propyl-1-oxa-4-azacyclotridecane-11,13-dione] | > 32 | 4 to 32 (≈ 6.25 to 50 µM) | < 4 | 4 to 32 (≈ 6.25 to 50 µM) | < 4 | < 4 |
| CCCN1CCC(C[C@@H]2COC(=O)C(C)(C)C(=O)[C@H](C)[C@@H](O[C@@H]3O[C@H](C)C[C@H](N(C)C)[C@H]3O)[C@](C)(OC)C[C@@H](C)CN2CCC)CC1 [Compound 96, (3R,6R,8R,9R,10R)-9-(((2S,3R,4S,6R)-4-(dimethylamino)-3-hydroxy-6-methyltetrahydro-2H-pyran-2-yl)oxy)-8-methoxy-6,8,10,12,12-pentamethyl-4-propyl-3-((1-propylpiperidin-4-yl)methyl)-1-oxa-4-azacyclotridecane-11,13-dione] | > 32 | > 32 | < 4 | 4 to 32 (≈ 5.99 to 47.9 µM) | 4 to 32 (≈ 5.99 to 47.9 µM) | < 4 |
| CCN1C[C@H](C)C[C@@](C)(OC)[C@H](O[C@@H]2O[C@H](C)C[C@H](N(C)C)[C@H]2O)[C@@H](C)C(=O)C(C)(C)C(=O)OC[C@H]1CC1CCN(C)CC1 [Compound 98, (3R,6R,8R,9R,10R)-9-(((2S,3R,4S,6R)-4-(dimethylamino)-3-hydroxy-6-methyltetrahydro-2H-pyran-2-yl)oxy)-4-ethyl-8-methoxy-6,8,10,12,12-pentamethyl-3-((1-methylpiperidin-4-yl)methyl)-1-oxa-4-azacyclotridecane-11,13-dione] | > 32 | > 32 | < 4 | 4 to 32 (≈ 6.39 to 51.1 µM) | < 4 | < 4 |
| CO[C@]1(C)C[C@@H](C)CN(C)[C@@H](CCCN(C)C2CCCC2)COC(=O)C(C)(C)C(=O)[C@H](C)[C@H]1O[C@@H]1O[C@H](C)C[C@H](N(C)C)[C@H]1O [Compound 99, (3S,6R,8R,9R,10R)-3-(3-(cyclopentyl(methyl)amino)propyl)-9-(((2S,3R,4S,6R)-4-(dimethylamino)-3-hydroxy-6-methyltetrahydro-2H-pyran-2-yl)oxy)-8-methoxy-4,6,8,10,12,12-hexamethyl-1-oxa-4-azacyclotridecane-11,13-dione] | > 32 | > 32 | < 4 | 4 to 32 (≈ 6.25 to 50 µM) | < 4 | < 4 |
| CCCN1CCC(C[C@@H]2COC(=O)C(C)(C)C(=O)[C@H](C)[C@@H](O[C@@H]3O[C@H](C)C[C@H](N(C)C)[C@H]3O)[C@](C)(OC)C[C@@H](C)CN2CC)CC1 [Compound 102, (3R,6R,8R,9R,10R)-9-(((2S,3R,4S,6R)-4-(dimethylamino)-3-hydroxy-6-methyltetrahydro-2H-pyran-2-yl)oxy)-4-ethyl-8-methoxy-6,8,10,12,12-pentamethyl-3-((1-propylpiperidin-4-yl)methyl)-1-oxa-4-azacyclotridecane-11,13-dione] | > 32 | 4 to 32 (≈ 6.12 to 48.9 µM) | < 4 | 4 to 32 (≈ 6.12 to 48.9 µM) | < 4 | < 4 |
| CO[C@]1(C)C[C@@H](C)CN(C)[C@@H](CCCN2CCC(F)CC2)COC(=O)C(C)(C)C(=O)[C@H](C)[C@H]1O[C@@H]1O[C@H](C)C[C@H](N(C)C)[C@H]1O [Compound 103, (3S,6R,8R,9R,10R)-9-(((2S,3R,4S,6R)-4-(dimethylamino)-3-hydroxy-6-methyltetrahydro-2H-pyran-2-yl)oxy)-3-(3-(4-fluoropiperidin-1-yl)propyl)-8-methoxy-4,6,8,10,12,12-hexamethyl-1-oxa-4-azacyclotridecane-11,13-dione] | > 32 | > 32 | < 4 | 4 to 32 (≈ 6.21 to 49.7 µM) | < 4 | < 4 |
| CO[C@]1(C)C[C@@H](C)CN(C)[C@@H](CCCN2CCOCC2)COC(=O)C(C)(C)C(=O)[C@H](C)[C@H]1O[C@@H]1O[C@H](C)C[C@H](N(C)C)[C@H]1O [Compound 105, (3S,6R,8R,9R,10R)-9-(((2S,3R,4S,6R)-4-(dimethylamino)-3-hydroxy-6-methyltetrahydro-2H-pyran-2-yl)oxy)-8-methoxy-4,6,8,10,12,12-hexamethyl-3-(3-morpholinopropyl)-1-oxa-4-azacyclotridecane-11,13-dione] | > 32 | > 32 | 4 to 32 (≈ 6.37 to 51 µM) | 4 to 32 (≈ 6.37 to 51 µM) | 4 to 32 (≈ 6.37 to 51 µM) | < 4 |
| CO[C@]1(C)C[C@@H](C)CN(C)[C@@H](CCCN2CCCC2)COC(=O)C(C)(C)C(=O)[C@H](C)[C@H]1O[C@@H]1O[C@H](C)C[C@H](N(C)C)[C@H]1O [Compound 107, (3S,6R,8R,9R,10R)-9-(((2S,3R,4S,6R)-4-(dimethylamino)-3-hydroxy-6-methyltetrahydro-2H-pyran-2-yl)oxy)-8-methoxy-4,6,8,10,12,12-hexamethyl-3-(3-(pyrrolidin-1-yl)propyl)-1-oxa-4-azacyclotridecane-11,13-dione] | > 32 | > 32 | < 4 | 4 to 32 (≈ 6.54 to 52.3 µM) | < 4 | < 4 |
| CO[C@]1(C)C[C@@H](C)CN(C)[C@@H](CCCN2CC[C@@H](F)C2)COC(=O)C(C)(C)C(=O)[C@H](C)[C@H]1O[C@@H]1O[C@H](C)C[C@H](N(C)C)[C@H]1O [Compound 108, (3S,6R,8R,9R,10R)-9-(((2S,3R,4S,6R)-4-(dimethylamino)-3-hydroxy-6-methyltetrahydro-2H-pyran-2-yl)oxy)-3-(3-((R)-3-fluoropyrrolidin-1-yl)propyl)-8-methoxy-4,6,8,10,12,12-hexamethyl-1-oxa-4-azacyclotridecane-11,13-dione] | > 32 | > 32 | < 4 | 4 to 32 (≈ 6.35 to 50.8 µM) | < 4 | < 4 |
| CO[C@]1(C)C[C@@H](C)CN(C)[C@@H](CCCN2CCC(F)(F)CC2)COC(=O)C(C)(C)C(=O)[C@H](C)[C@H]1O[C@@H]1O[C@H](C)C[C@H](N(C)C)[C@H]1O [Compound 110, (3S,6R,8R,9R,10R)-3-(3-(4,4-difluoropiperidin-1-yl)propyl)-9-(((2S,3R,4S,6R)-4-(dimethylamino)-3-hydroxy-6-methyltetrahydro-2H-pyran-2-yl)oxy)-8-methoxy-4,6,8,10,12,12-hexamethyl-1-oxa-4-azacyclotridecane-11,13-dione] | > 32 | > 32 | 4 to 32 (≈ 6.04 to 48.3 µM) | 4 to 32 (≈ 6.04 to 48.3 µM) | 4 to 32 (≈ 6.04 to 48.3 µM) | < 4 |
| CO[C@]1(C)C[C@@H](C)CN(C)[C@H](C[C@H]2C[C@H](N(C)C)C2)COC(=O)C(C)(C)C(=O)[C@H](C)[C@H]1O[C@@H]1O[C@H](C)C[C@H](N(C)C)[C@H]1O [Compound 111, (3R,6R,8R,9R,10R)-9-(((2S,3R,4S,6R)-4-(Dimethylamino)-3-hydroxy-6-methyltetrahydro-2H-pyran-2-yl)oxy)-3-(((1r,3S)-3-(dimethylamino)cyclobutyl)methyl)-8-methoxy-4,6,8,10,12,12-hexamethyl-1-oxa-4-azacyclotridecane-11,13-dione] | > 32 | > 32 | < 4 | 4 to 32 (≈ 6.54 to 52.3 µM) | < 4 | < 4 |
| CO[C@]1(C)C[C@@H](C)CN(C)[C@@H](CCCN2Cc3ccccc3C2)COC(=O)C(C)(C)C(=O)[C@H](C)[C@H]1O[C@@H]1O[C@H](C)C[C@H](N(C)C)[C@H]1O [Compound 112] | > 32 | 4 to 32 (≈ 6.06 to 48.5 µM) | < 4 | < 4 | < 4 | < 4 |
| CCN1C[C@H](C)C[C@@](C)(OC)[C@H](O[C@@H]2O[C@H](C)C[C@H](N(C)C)[C@H]2O)[C@@H](C)C(=O)C(C)(C)C(=O)OC[C@H]1CCCN1CCCC1 [Compound 113, (3R,6R,8R,9R,10R)-9-(((2S,3R,4S,6R)-4-(dimethylamino)-3-hydroxy-6-methyltetrahydro-2H-pyran-2-yl)oxy)-4-ethyl-8-methoxy-6,8,10,12,12-pentamethyl-3-(3-(pyrrolidin-1-yl)propyl)-1-oxa-4-azacyclotridecane-11,13-dione] | > 32 | > 32 | < 4 | < 4 | < 4 | < 4 |
| CO[C@]1(C)C[C@@H](C)CN(C)[C@@H](CCCN2CCNC(=O)C2)COC(=O)C(C)(C)C(=O)[C@H](C)[C@H]1O[C@@H]1O[C@H](C)C[C@H](N(C)C)[C@H]1O [Compound 115, (3S,6R,8R,9R,10R)-9-(((2S,3R,4S,6R)-4-(dimethylamino)-3-hydroxy-6-methyltetrahydro-2H-pyran-2-yl)oxy)-8-methoxy-4,6,8,10,12,12-hexamethyl-3-(3-(3-oxopiperazin-1-yl)propyl)-1-oxa-4-azacyclotridecane-11,13-dione] | > 32 | > 32 | > 32 | > 32 | > 32 | > 32 |
